How the values were obtained:
IFN1 gene expression = test: IFN gene set expression (RNA-sequencing) in healthy volunteers, Compound A versus placebo, day 14; type: in vivo
Experimental: (§1) A study was conducted to assess IFN1 gene expression in healthy volunteers administered a regimen of Compound A. The data set consists of 48 subjects with transcriptome-wide RNA-sequencing data collected for each subject per time-point. For each subject, time points included a pre-dose at day 1, a pre-dose at day 14, and a 4 hour post-day 14 dose. A Wald test was used to assess the association of the various doses at post-dose day 14 versus placebo. To assess potentially off target effects, a secondary transcriptome-wide analysis was performed. Multiple test correction was completed using a Benjamini-Hochberg cutoff of 0.05 within the primary and secondary analyses separately.
For example FIG. 4 and FIG. 5 show dose-dependent median IFN gene expression levels over time for HERC5, IFI27, IFIT1, RSAD2. […] As shown in FIG. 6 and FIG. 7, SIGLEC1 was decreased after a 14-day regimen of treatment with Compound A.

[1] = system: transcriptome-wide gene expression; test: Secondary transcriptome-wide analysis for potentially off target effects, day 14 4 hour post-treatment versus placebo; type: in vivo, healthy volunteers
Experimental: as §1

[2] = IFN gene expression in healthy volunteers after 7 days 40 mg Compound A twice daily versus placebo; type: in vivo; settings: gene CETP, 40 mg twice daily, versus placebo, healthy volunteers
Experimental: (§2) A study was conducted to assess IFN1 gene expression in healthy volunteers administered a regimen of Compound A. The data set consists of 48 subjects with transcriptome-wide RNA-sequencing data collected for each subject per time-point. […] […] To assess potentially off target effects, a secondary transcriptome-wide analysis was performed. Multiple test correction was completed using a Benjamini-Hochberg cutoff of 0.05 within the primary and secondary analyses separately.

IFN gene expression = test: as above; type: in vivo
Experimental: as §2

With `[2H]C([2H])([2H])CC(=O)c1cnc(NC(=O)C2CC2)cc1Nc1cccc(-c2ncn(C([2H])([2H])[2H])n2)c1OC` [Compound A, N-(4-((2-Methoxy-3-(1-(methyl-d3)-1H-1,2,4-triazol-3-yl)phenyl)amino)-5-(propanoyl-3,3,3-d3)pyridin-2-yl)cyclopropanecarboxamide] the “association of Compound A with SIGLEC1 gene expression (Wald test)” value (IFN1 gene expression; after 14 days of treatment versus placebo, Table 2) was “significant association”, the “median IFN gene expression levels for HERC5, IFI27, IFIT1, RSAD2” value (IFN1 gene expression; after 14 days, versus placebo, FIG. 4 and FIG. 5, healthy volunteers) was “substantial decrease” and the “median gene expression levels for SIGLEC1” value (IFN1 gene expression; after a 14-day regimen, versus placebo, FIG. 6 and FIG. 7, healthy volunteers) was “decreased”. The “log2FoldChange CXCL10” value (IFN1 gene expression; gene CXCL10, after 14 days of treatment versus placebo, healthy volunteers) was −1.589, the “log2FoldChange EPSTI1” value (IFN1 gene expression; gene EPSTI1, after 14 days of treatment versus placebo, healthy volunteers) was −0.2266 and the “log2FoldChange IFI27” value (IFN1 gene expression; gene IFI27, after 14 days of treatment versus placebo, healthy volunteers) was −1.082. For the same molecule, the “log2FoldChange IFI44” value (IFN1 gene expression; gene IFI44, after 14 days of treatment versus placebo, healthy volunteers) was −0.3773, the “log2FoldChange IFI44L” value (IFN1 gene expression; gene IFI44L, after 14 days of treatment versus placebo, healthy volunteers) was −1.043 and the “log2FoldChange IFIT1” value (IFN1 gene expression; gene IFIT1, after 14 days of treatment versus placebo, healthy volunteers) was −1.676. The “log2FoldChange ISG15” value (IFN1 gene expression; gene ISG15, after 14 days of treatment versus placebo, healthy volunteers) was −0.8721, the “log2FoldChange ISG20” value (IFN1 gene expression; gene ISG20, after 14 days of treatment versus placebo, healthy volunteers) was 0.08851 and the “log2FoldChange MX1” value (IFN1 gene expression; gene MX1, after 14 days of treatment versus placebo, healthy volunteers) was −1.438. The “log2FoldChange OAS1” value (IFN1 gene expression; gene OAS1, after 14 days of treatment versus placebo, healthy volunteers) was −0.1127, the “log2FoldChange OAS2” value (IFN1 gene expression; gene OAS2, after 14 days of treatment versus placebo, healthy volunteers) was −0.008935 and the “log2FoldChange OAS3” value (IFN1 gene expression; gene OAS3, after 14 days of treatment versus placebo, healthy volunteers) was −0.7134. The “log2FoldChange RSAD2” value (IFN1 gene expression; gene RSAD2, after 14 days of treatment versus placebo, healthy volunteers) was −0.4713, the “log2FoldChange SIGLEC1” value (IFN1 gene expression; gene SIGLEC1, after 14 days of treatment versus placebo, healthy volunteers) was −3.579 and the “log2FoldChange SPATS2L” value (IFN1 gene expression; gene SPATS2L, after 14 days of treatment versus placebo, healthy volunteers) was −0.5117. The “log2FoldChange CDNF” value ([1]; gene CDNF, secondary analysis) was 1.185, the “log2FoldChange ENSG00000288643” value ([1]; gene ENSG00000288643, secondary analysis) was −1.541 and the “log2FoldChange IFI6” value ([1]; gene IFI6, secondary analysis) was −1.206. For the same molecule, the “log2FoldChange IFIT1” value ([1]; gene IFIT1, secondary analysis) was −1.676, the “log2FoldChange JPH4” value ([1]; gene JPH4, secondary analysis) was −1.043 and the “log2FoldChange LRP1” value ([1]; gene LRP1, secondary analysis) was −1.314. The “log2FoldChange LRRC75B” value ([1]; gene LRRC75B, secondary analysis) was −1.205, the “log2FoldChange MX1” value ([1]; gene MX1, secondary analysis) was −1.438 and the “log2FoldChange SIGLEC1” value ([1]; gene SIGLEC1, secondary analysis) was −3.579. The “off target associations after multiple test corrections” value ([1]; transcriptome-wide, Table 4) was “no significant off target associations”, the “log2FoldChange CETP” value [2] was 1.503 and the “rank of SIGLEC1 among differentially expressed genes, treated versus placebo” value (IFN gene expression; 40 mg twice daily, Table 3) was “top differentially expressed gene”. For the same molecule, the “log2FoldChange CHRM3” value (IFN gene expression; gene CHRM3, 40 mg twice daily, versus placebo, healthy volunteers) was −1.521, the “log2FoldChange HJURP” value (IFN gene expression; gene HJURP, 40 mg twice daily, versus placebo, healthy volunteers) was 1.007 and the “log2FoldChange OSM” value (IFN gene expression; gene OSM, 40 mg twice daily, versus placebo, healthy volunteers) was 1.157. For the same molecule, the “log2FoldChange SIGLEC1” value (IFN gene expression; gene SIGLEC1, 40 mg twice daily, versus placebo, healthy volunteers) was −3.626, the “log2FoldChange SOCS3” value (IFN gene expression; gene SOCS3, 40 mg twice daily, versus placebo, healthy volunteers) was 1.421 and the “log2FoldChange SYN2” value (IFN gene expression; gene SYN2, 40 mg twice daily, versus placebo, healthy volunteers) was 2.239.

Reference: patent US20260232674A1, “METHODS OF TREATING HIDRADENITIS SUPPURATIVA” (Alumis Inc., priority 2023, published 2026)
